We go through 26 compounds from patent US20230009608A1, “GRK2 INHIBITORS AND USES THEREOF” (Cygnal Therapeutics, Inc., priority 2020, published 2023).

Each structure is given as a SMILES string.

The subject of assay [1] is PAXF1657 control empty vector cell line. As to the kind of experiment: 7-day proliferation assay, PAXF1657 control empty vector cell line (Example 9). Particulars: 168 h; Cell Line: PAXF1657 empty vector (EV) cell line; 7-day; read-out: C: 7-day proliferation assay: IC50 GeoMean. Type of assay: cell-based. In short, it runs like this:
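Cells plated at 500 per well and attached overnight. Next, 10-point inhibitor series added (30 μM-0.0002 μM, 0.3% DMSO) and a day-0 viability plate read. Then, after 3 days, medium with fresh compound. Finally, viability after 4 more days via CellTiter-Glo.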

The target in assay [2] is T1, GRK2 (Homo sapiens, UniProt P25098).
T1 construct: purchased SignalChem A14-10G
T1 sequence (P25098 1-689): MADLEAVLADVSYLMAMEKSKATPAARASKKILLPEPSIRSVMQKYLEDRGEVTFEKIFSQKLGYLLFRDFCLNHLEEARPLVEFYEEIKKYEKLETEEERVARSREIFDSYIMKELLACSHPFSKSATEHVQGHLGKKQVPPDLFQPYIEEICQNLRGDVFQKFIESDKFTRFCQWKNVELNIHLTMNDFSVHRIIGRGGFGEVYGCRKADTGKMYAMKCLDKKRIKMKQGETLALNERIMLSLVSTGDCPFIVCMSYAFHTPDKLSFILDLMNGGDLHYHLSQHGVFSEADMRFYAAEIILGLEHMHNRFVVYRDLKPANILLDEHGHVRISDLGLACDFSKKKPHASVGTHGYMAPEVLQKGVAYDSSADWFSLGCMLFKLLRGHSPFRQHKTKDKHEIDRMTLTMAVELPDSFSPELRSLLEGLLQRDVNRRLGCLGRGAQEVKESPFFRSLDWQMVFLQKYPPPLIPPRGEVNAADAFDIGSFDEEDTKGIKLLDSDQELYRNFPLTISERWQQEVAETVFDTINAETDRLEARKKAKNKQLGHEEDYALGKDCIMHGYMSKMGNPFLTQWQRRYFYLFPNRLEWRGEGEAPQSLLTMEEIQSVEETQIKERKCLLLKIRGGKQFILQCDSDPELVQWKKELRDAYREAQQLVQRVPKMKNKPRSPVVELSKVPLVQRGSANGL
As to the kind of experiment: GRK2 Inhibition Assay (TR-FRET, Example 7). Type of assay: biochemical. The note with it: Enzyme Assay B, TR-FRET (Example 7); read-out: B: Enzymatic GRK2: IC50 (nM) (Example 7). As for the experimental part: Enzyme GRK2 (1 nM final concentration) was diluted in 25 mMv HEPES, 10 mM MgCl2, 2 mM DTT, 0.01% Tween-20, and 1 mM EGTA. Then the GRK2 mixture was added into ProxiPlate-384 white plate and pre-incubated for 30 min with test compounds at room temperature. ATP (7 μM final concentration) and Ulight TopoIIα (50 nM final concentration) were added into the assay plate to initiate the reaction and the mixture was incubated at room temperature for 90 min. Then, Eu anti-TopoIIα (0.12 nM final concentration), BSA (0.01% final concentration), and EDTA (11 mMv final concentration) in LANCE assay buffer were added into each well. After 60 min incubation time at room temperature, TR-FRET signal was measured by EnVision plate reader.
In general terms: Time-resolved FRET reads energy transfer from a long-lived donor to a nearby acceptor.

For `CCCn1c(CNc2cccc(C(=O)NCc3cccnc3C(F)(F)F)c2)nnc1-c1ccncn1`, the IC50 in assay [1] is 667 nM; in assay [2], 2.6 nM.

Turning to `CCCn1c(CNc2cccc(C(=O)NCc3ccc(OC)cc3F)c2)nnc1-c1ccncn1`, the results for the IC50 in assay [1] and in assay [2] were greater than 30000 nM and 2.1 nM, respectively.

In the case of `CCCn1c(CNc2cccc(C(=O)NCc3c(OC)cccc3OC)c2)nnc1-c1ccncn1`, the IC50 is greater than 30000 nM in assay [1] and 3.1 nM in assay [2].

Turning to `CCCn1c(CNc2cccc(C(=O)NCc3ccccc3OCC)c2)nnc1-c1ccncn1`, the IC50 was greater than 30000 nM in assay [1] and 8.2 nM in assay [2].

`CCCn1c(CNc2cccc(C(=O)NC3(c4ccccc4)CCOCC3)c2)nnc1-c1ccncn1`: the figures for the IC50 in assay [1] and in assay [2] were 9260 nM and 22 nM, respectively.

Take `CCCn1c(CNc2cccc(C(=O)NCc3cccnc3OC)c2)nnc1-c1ccncn1`: the values for the IC50 in assay [1] and in assay [2] were greater than 30000 nM and 3.8 nM, respectively.

For the compound `O=C(NCc1cccc2c1OCC2)c1cccc(NCc2nnc3n2CCOc2cnccc2-3)c1`, the IC50 in assay [1] is 3010 nM; in assay [2], 2.4 nM.

Take `O=C(NCc1cccc(F)c1)c1cccc(NCc2nnc3n2CCOc2cnccc2-3)c1`: the IC50 in assay [1] amounted to 7020 nM; in assay [2] it was 3.7 nM.

In the case of `O=C(N[C@H]1CCOc2ccccc21)c1cccc(NCc2nnc3n2CCOc2cnccc2-3)c1`, the IC50 in assay [1] was greater than 30000 nM; in assay [2] it was 2.6 nM.

Regarding `O=C(NCc1cccnc1C(F)(F)F)c1cccc(NCc2nnc3n2CCOc2cnccc2-3)c1`, the IC50 was found to be 6570 nM in assay [1] and 3.5 nM in assay [2].

As to `COc1ccc(CNC(=O)c2cccc(NCc3nnc4n3CCOc3cnccc3-4)c2)c(F)c1`, the IC50 in assay [1] was greater than 30000 nM; in assay [2], 1.6 nM.

For the compound `COc1cccc(OC)c1CNC(=O)c1cccc(NCc2nnc3n2CCOc2cnccc2-3)c1`, the IC50 in assay [1] was greater than 30000 nM; in assay [2], 6.7 nM.

`CCOc1ccccc1CNC(=O)c1cccc(NCc2nnc3n2CCOc2cnccc2-3)c1`: the IC50 is 2320 nM in assay [1] and 9.1 nM in assay [2].

Turning to `O=C(NC1(c2ccccc2)CCOCC1)c1cccc(NCc2nnc3n2CCOc2cnccc2-3)c1`, the IC50 came out at 20300 nM in assay [1] and 39 nM in assay [2].

With `COc1ncccc1CNC(=O)c1cccc(NCc2nnc3n2CCOc2cnccc2-3)c1`, the IC50 in assay [1] was greater than 30000 nM; in assay [2] it was 7.5 nM.

`O=C(NCc1cccc2c1OCC2)c1cccc(NCc2nnc(-c3ccncc3)n2CCO)c1`: the IC50 in assay [1] was found to be 6080 nM; in assay [2], 6.3 nM.

As for `O=C(NCc1cccc(F)c1)c1cccc(NCc2nnc(-c3ccncc3)n2CCO)c1`, the IC50 is greater than 30000 nM in assay [1] and 9.2 nM in assay [2].

As to `O=C(N[C@H]1CCOc2ccccc21)c1cccc(NCc2nnc(-c3ccncc3)n2CCO)c1`, the figures for the IC50 in assay [1] and in assay [2] were 4580 nM and 8.2 nM, respectively.

Consider `O=C(NCc1cccnc1C(F)(F)F)c1cccc(NCc2nnc(-c3ccncc3)n2CCO)c1`, for which the IC50 in assay [1] was greater than 30000 nM; in assay [2], 5.2 nM.

Regarding `COc1ccc(CNC(=O)c2cccc(NCc3nnc(-c4ccncc4)n3CCO)c2)c(F)c1`, the IC50 was greater than 30000 nM in assay [1] and 4.9 nM in assay [2].

Consider `COc1cccc(OC)c1CNC(=O)c1cccc(NCc2nnc(-c3ccncc3)n2CCO)c1`, for which the results for the IC50 in assay [1] and in assay [2] were greater than 30000 nM and 23 nM, respectively.

With `CCOc1ccccc1CNC(=O)c1cccc(NCc2nnc(-c3ccncc3)n2CCO)c1`, the IC50 was found to be 6310 nM in assay [1] and 19 nM in assay [2].

Consider `COc1ncccc1CNC(=O)c1cccc(NCc2nnc(-c3ccncc3)n2CCO)c1`, for which the IC50 in assay [1] is 256 nM; in assay [2], 20 nM.

With `O=C(NCc1c(F)cccc1F)c1ccnc(NCc2nnc(-c3ccncc3)[nH]2)c1`, the IC50 in assay [1] was greater than 30000 nM; in assay [2], 34 nM.

Regarding `CCc1cnccc1CNC(=O)c1cccc(NCc2nnc(-c3ccncc3Cl)n2C)c1`, the IC50 in assay [1] is greater than 30000 nM; in assay [2], 79 nM.

As for `CCc1cnccc1CNC(=O)c1cccc(NCc2nnc(-c3ccncc3F)n2C)c1`, the IC50 in assay [1] came out at 1480 nM; in assay [2] it was 41 nM.
